From US6395499B1, “Methods of identifying modulators of a DP prostaglandin receptor” (Merck Frosst Canada & Co., priority 1995, dated 2002)

Assays:
[1] = molecular target: T1, human prostaglandin D2 (DP) receptor (Homo sapiens, UniProt Q13258); test: [3H]PGD2 specific binding assay, membranes of pcDNA3-hDP transfected COS-M6 cells; details: 0.87 nM [3H]PGD2, 60 min at 30° C., pH 7.0, read-out: Ki, competition for [3H]PGD2 specific binding
T1 construct: The full length coding cDNA was constructed as follows; expressed in transfected cells
T1 sequence (Q13258 1-359): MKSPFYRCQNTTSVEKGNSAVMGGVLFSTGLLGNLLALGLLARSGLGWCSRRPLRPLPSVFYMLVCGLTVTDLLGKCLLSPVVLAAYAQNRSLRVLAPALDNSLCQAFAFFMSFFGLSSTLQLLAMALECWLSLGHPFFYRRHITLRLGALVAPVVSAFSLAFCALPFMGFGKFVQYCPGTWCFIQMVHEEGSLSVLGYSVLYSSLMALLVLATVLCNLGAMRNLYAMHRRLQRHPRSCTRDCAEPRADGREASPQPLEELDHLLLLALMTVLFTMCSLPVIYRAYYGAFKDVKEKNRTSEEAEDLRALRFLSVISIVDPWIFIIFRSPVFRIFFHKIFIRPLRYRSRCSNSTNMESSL
Protocol: FIG. 3—Competition for [^3H]PGD2 specific binding to pcDNA3-hDP transfected COS-M6 membranes. [^3H]PGD2 binding assays were performed as described in Example 6. The percentage maximum [^3H]PGD2 specific binding at each competing ligand concentration was determined for PGD2 (▪), the DP receptor agonist BW245C (●), the DP antagonist BW868C (♦), PGE2 (▴), PGF2a (▾), iloprost (□) and the TP-receptor agonist U46619 (∘), over a concentration range up to 100 μM.
The recently cloned human prostaglandin D2 (DP) receptor was subcloned into the pcDNA3 plasmid (Invitrogen) and transfected into COS-M6 cells by the cationic liposome-mediated transfer of DNA using LiofectAMINE reagent (GIBCO/BRL). The cells were maintained in culture for 72 h, then harvested and membranes prepared by differential centrifugation (1000×g for 10 min, then 100,000×g for 30 min) following lysis of the cells by nitrogen cavitation. [^3H]PGD2 specific binding assays were performed in 10 mM BES adjusted to pH 7.0 with KOH and containing 1.0 mM EDTA, 10 mM MnCl2, 0.87 nM [^3H]PGD2 and […] of protein from the 100,000×g membrane fraction. Incubations were conducted for 60 min at 30° C. prior to separation of the bound and free radioligand by rapid filtration through Whatman GF/B filters presoaked at 4° C. in washing buffer (10 mM BES/KOH (pH 7.0) containing 0.01% (w/v)bovine serum albumin). The filters were washed with approximately 16 ml of washing buffer and the residual [^3H]PGD2 bound to the filter was quantified by liquid scintillation counting. Specific binding was defined as the difference between total binding and non-specific binding, determined in the presence of 1 mM PGD2.
The cloned human DP receptor was transfected into COS-M6 cells and [^3H]PGD2 binding assays were performed with membranes prepared from the transfected cells. […] The rank order of affinity for prostaglandins and related synthetic analogs at the human DP receptor was therefore: BW245C>PGD2>BW868C>PGE2>PGF2a=iloprost>U46619. This rank order of potency has been predicted for the DP receptor from previous pharmacological studies.

[2] = molecular target: T1, human prostaglandin D2 (DP) receptor; test: cAMP assay in HEK293 (EBNA) cells stably expressing the DP receptor; format: cell-based; details: for EC50: 15 min at 37° C., 100 μM RO-20-1724, read-out: EC50, increase in intracellular cAMP production; for cAMP production: concentrations up to 1 μM
Protocol: FIG. 5—Increases in intracellular cAMP production in HEK293 (EBNA) cells stably expressing the DP receptor is shown. cAMP assays were performed as described in Example 7. The pmoles of cAMP produced per 1.5×10^5 cells at each ligand concentration was determined for PGD2 (n), the DP receptor agonist BW245C (●), the DP antagonist BW868C (♦), PGE2 (▴), PGE1 ( ? ), PGF2α (▾), iloprost (□) and the TP-receptor agonist U46619 (∘), over a concentration range up to 1 μM.
The recently cloned human prostaglandin D2 (DP) receptor was subcloned into the pCEP4 plasmid (Invitrogen) and transfected into HEK293 (EBNA) cells by the cationic liposome-mediated transfer of DNA using LipofectAMINE™ (Gibco/BRL) reagent. Cells were maintained in culture for 48 h post transfection and then trypsinized, diluted and replated in the presence 200 μg/ml hygromycin B (Calbiochem) to select for transfected cells. Cells were maintained under selection for 3 weeks to ensure a homogeneous population of cells expressing the DP receptor.
(§1) Increases in intracellular cAMP production following agonist challenge was performed in HEK293 (EBNA) cells expressing the DP receptor and control HEK293 (EBNA) cells. Cells were harvested at approximately 80% confluence by incubation in enzyme-free cell dissociation buffer (Gibco/BRL), washed once with HEPES-buffered Krebs-Ringer solution {1.25 mM MgSO4, 1.5 mM CaCl2, 5 mM KCl, 124 mM NaCl, 8 mM glucose, 1.25 mM KH2PO4, and 25 mM HEPES/KOH (pH 7.4)} and resuspended in the same buffer. The cAMP assay was performed in a final volume of 0.2 ml of HEPES-buffer Krebs-Ringer solution and 100 μM of the phosphodiesterase type IV inhibitor RO-20-1724 (Biomol), to prevent hydrolysis of cAMP. RO-20-1724 and the compounds under evaluation were added to the incubation mixture in dimethyl sulfoxide or ethanol to a final vehicle concentration 0.35% (v/v) which was kept constant in all samples. The reaction was initiated by the addition of 1.5×10^5 cells per incubation. Samples were incubated at 37° C. for 15 min and the reaction was then terminated by immersing the samples in boiling water for 3 minutes. Cell viability was always ≧96% as determined by trypan blue exclusion. Measurement of cAMP was performed by radioimmunoassay using [^125I]cAMP (Amersham International).

[3] = molecular target: T2, DP receptor (Homo sapiens, UniProt Q13258); test: Intracellular calcium [Ca2+]i assay in DP-HEK293 (EBNA) stable cell line; format: cell-based; design: [Ca2+]i upon ionophore challenge at end of experiment (viability check): dose or concentration left out as unconfirmed; details: for calcium mobilization [Ca2+]i: DP-expressing HEK293 (EBNA) cells
T2 construct: The full length coding cDNA was constructed as follows; expressed in transfected cells
T2 sequence (Q13258 1-359): T1 sequence (Q13258 1-359)
Protocol: FIG. 4—Increases in intracellular calcium [Ca^2+]i in HEK293 (EBNA) cells stably expressing the DP receptor is shown. DP-HEK293 (EBNA) cells were harvested and prepared as described in Example 8. […] At the end of each experiment cells were challenged with 1 μM ionomycin to release [Ca^2+]i followed by quenching of the [Ca^2+]i release with 1 mM EDTA.
(§2) Intracellular calcium [Ca^2+]i measurements were performed with both the DP-HEK293 (EBNA) stable cell line and control HEK293 (EBNA) cells. The cells were harvested with enzyme-free cell dissociation buffer, recovered by centrifugation at 300×g for 5 min at 22° C. and resuspended at 2×10^6 cells/ml in DMEM growth medium without G418 or hygromycin B. The cells were incubated at 37° C., 6% CO2 for 45 min with 2 μM fura-2 AM. Unincorporated fura-2 AM was removed by three washes in HBSS (1.3 mM CaCl2, 5 mM KCl, 0.3 mM KH2PO4, 0.9 mM MgCl2, 138 mM NaCl, 4 mM NaHCO3, 0.3 mM Na2HPO4, 5.6 mM D-glucose) by centrifugation at 300×g, for 5 min at 22° C. The cells were then resuspended at a final concentration of 10^6 cells/ml in HBSS. [Ca^2+]i was measured following agonist challenge of 2*10^6 fura-2 AM loaded cells using a Perkin-Elmer LS-5 spectrophotometer essentially as described (Chan et al., 1994, Journal of Pharmacology and Experimental Therapeutics 269(3): 891-896).

[4] = system: control HEK293 (EBNA) cells; test: Intracellular calcium [Ca2+]i assay in control HEK293 (EBNA) cells; format: cell-based; details: 1000 nM
Protocol: as §2

[5] = system: control HEK293 (EBNA) cells; test: cAMP assay in control HEK293 (EBNA) cells; format: cell-based; details: 1 μM; for cAMP production in control cells: control HEK293 (EBNA) cells
Protocol: as §1

O=C(O)CCCCCCC1C(=O)NC(=O)N1CCC(O)C1CCCCC1 (stereo not drawn) [BW245C]
Ki [1]: 0.9 nM
EC50 [2]: 0.6 nM

O=C(O)CCCCCCC1C(=O)N(Cc2ccccc2)C(=O)N1NCC(O)C1CCCCC1 (stereo not drawn) [BW868C]
Ki [1]: 1.7 nM
cAMP production [2]: 20 pmol cAMP/1.5×10^5 cells

CCCCC[C@H](O)/C=C/[C@H]1C(=O)C[C@H](O)[C@@H]1C/C=C\CCCC(=O)O [PGD2, Prostaglandin D2]
Ki [1]: 1.1 nM
fold less potent than BW245C (cAMP EC50) [2]: 10 fold
EC50 [2]: 6.4 nM
cAMP production [2]: > 140 pmol cAMP/1.5×10^5 cells
calcium mobilization [Ca2+]i ([3]; 10 to 1000 nM): increased calcium mobilization
calcium mobilization [Ca2+]i ([3]; concentrations below 10 nM, versus vehicle): failed to induce a response
change in [Ca2+]i in control cells [4]: did not provoke any change

CCCCC[C@H](O)/C=C/[C@H]1[C@H](O)CC(=O)[C@@H]1CCCCCCC(=O)O [PGE1]
fold less cAMP in control cells than in similarly challenged DP-expressing cells [5]: 14 fold
cAMP production in control cells [5]: 6 pmoles/1.5×10^5 cells

CCCCC[C@H](O)/C=C/[C@H]1[C@H](O)CC(=O)[C@@H]1C/C=C\CCCC(=O)O [PGE2]
Ki [1]: 101 nM
fold less cAMP in control cells than in similarly challenged DP-expressing cells [5]: 14 fold
cAMP production in control cells [5]: 6 pmoles/1.5×10^5 cells

CCCCC[C@H](O)/C=C/[C@@H]1[C@@H](C/C=C\CCCC(=O)O)[C@@H](O)C[C@H]1O [PGF2a]
Ki [1]: 512 nM

CCCCC[C@H](O)/C=C/[C@@H]1[C@@H](C/C=C\CCCC(=O)O)[C@H]2CO[C@@H]1C2 [U46619]
Ki [1]: ~1850 nM

CC#CCC(C)[C@H](O)/C=C/[C@@H]1[C@H]2C/C(=C/CCCC(=O)O)C[C@H]2C[C@H]1O (stereo partly drawn) [iloprost]
Ki [1]: 630 nM
EC50 [2]: > 500 nM

C[C@H](CCC(=O)O)C[C@H](C)C[C@H](C)C(=O)/C=C(\O)[C@H](C)C[C@H](C)C/C=C/[C@@H](C)[C@@H](O)[C@@H](C)[C@@H](O)C[C@@H]1CC[C@@](C)([C@H]2CC[C@@](C)([C@@H](C)O)O2)O1 [ionomycin]
[Ca2+]i upon ionophore challenge at end of experiment (viability check) [3]: large increase in [Ca^2+]i
